In paper PMC8279416, “Structural Fine-Tuning of Desmuramylpeptide NOD2 Agonists Defines Their In Vivo Adjuvant Activity” (Journal of Medicinal Chemistry, 2021):
Several values for one entry are separate records, joined by “and”; a condition that tells them apart may be missing. Equal values may be shown once.

What was measured:
[1] = design: method as in PMID 29543461; details: earlier work of the group; cited from earlier work
NIH/OlaHsd mice [2] = experiment: In vivo ovalbumin-specific antibody response, first experiment (neutral liposomes); design: species or system mouse; details: for Log10 (anti-OVA IgG1/anti-OVA IgG2a): first in vivo experiment, one week after the booster dose, mean ± SEM of 5 mice; for Ovalbumin-specific IgG1 response (in words) / Adjuvant activity: ovalbumin-specific IgG (in words) / Ovalbumin-specific IgG2a response (in words): neutral liposomes, 0.30 μmol adjuvant per dose, 1 week after booster; for Adjuvant activity: ovalbumin-specific IgG (in words): s.c.
Protocol: To determine whether enhanced antigen presentation in vitro is correlated to in vivo adjuvant activities, an immunization study was performed in a murine model of adjuvanticity. Specifically, the selected desmuramylpeptides were investigated for induction of systemic immune responses against the model antigen ovalbumin. Seven groups of NIH/OlaHsd mice were immunized with ovalbumin-containing neutral liposomes, either alone or with additional adjuvants of MDP or the desmuramylpeptides 1, 68, 74, 75, or 81. After immunization and one booster dose, the mice sera were collected and assayed for ovalbumin-specific IgG antibodies (Figure 10).
(§1) Multilamellar liposomes were prepared by the modified thin lipid film method as described previously.[130],[131] For the preparation of neutral liposomes, a 7:5 molar ratio of egg-phosphatidylcholine and cholesterol was used. For the preparation of negatively charged liposomes, a 7:5:1 molar ratio of egg-phosphatidylcholine, cholesterol, and dicetylphosphate was used, while a 7:5:0.5 molar ratio of egg-phosphatidylcholine, cholesterol, and Man-PEG-Pam was used in the preparation of mannosylated liposomes. Lipids (total lipid concentration, 4 mg/mL) were dissolved in chloroform/methanol (2:1). A methanol or chloroform/methanol solution of MDP or the desmuramylpeptides was added to the lipid solution for a final concentration of 2 mM and 1.5 mM for the first (Figure 10) and second (Figure 11) experiments, respectively. After rotary evaporation of the solvent, the remaining lipid film was dried in vacuum for 1 h and then dispersed by gentle handshaking in an ovalbumin solution in saline (0.0667 and 0.1 mg/mL for the first and second experiments, respectively). This was then left overnight at 4 °C to swell and stabilize. Liposome size was reduced by sonification. Nonentrapped material was not separated from liposomes, and the complete liposome suspension was used for immunizations.
(§2) For the first experiment (Figure 10), sex-matched NIH/OlaHsd mice (five per group) were immunized subcutaneously in the tail base and boosted one time after 21 days. The injection volume in all experimental groups was 0.15 mL per mouse, which corresponds to 10 μg of OVA, […], and 0.30 μmol of MDP and desmuramylpeptides. For the second experiment (Figure 11), sex-matched NIH/OlaHsd mice (five per group) were immunized and boosted two times subcutaneously into the tail base at 21-day intervals. The injection volume in all experimental groups was 0.1 mL per mouse, which corresponds to 10 μg of OVA, 400 μg of lipids, and 0.15 μmol of MDP and 75. The mice were anesthetized with ip application of ketamine/xylazine (25 mg/kg each) prior to blood collection from the axillary plexus on the seventh day after the last booster dose. Individual serum from each animal was decomplemented at 56 °C for 30 min and then stored at −20 °C until tested.
(§3) ELISA assays were performed as detailed previously.[46] Briefly, high-binding ELISA plates (Costar, U.S.A.) were coated with a 15 μg/mL solution of ovalbumin in carbonate buffer, pH 9.6, and incubated overnight at room temperature. Nonspecific antibody binding was blocked with 0.5% w/v bovine serum albumin in PBS-T (0.05% (v/v) Tween 20 in phosphate-buffered saline) for 2 h at 37 °C. After washing, five serial dilutions of mice sera and standard preparations were added in duplicate. Plates were incubated overnight at room temperature, washed, and analyzed for ovalbumin-specific IgG levels by incubation with HRP-conjugated goat anti-mouse IgG (2 h at 37 °C) and then, after washing, with 0.6 mg/mL o-phenylenediaminedihydrochloride solution in citrate-phosphate buffer, pH 5.0, with 0.5 μL of 30% H2O2 per milliliter for 30 min at room temperature in the dark. The enzymatic reaction was stopped with 12.5% H2SO4, and absorbance at 492 nm was measured using a microplate reader (Thermo Fisher Scientific, Waltham, MA, U.S.A.). […]

NOD2 = biological target: T1, NOD2 (Homo sapiens, UniProt Q9HC29); experiment: HEK-Blue NOD2 cell line reporter assay (NF-κB-inducible SEAP); assay type: cell-based; details: HEK-Blue NOD2 cells, 18 h, mean ± SEM; for NOD2 activity at 2 μM (fold increase): NF-κB transcriptional (SEAP) activity relative to 0.1% DMSO; for EC50: 7 or 8 concentrations 1 nM to 20 μM
T1 construct: host or cells: HEK-Blue NOD2 cells (HEK293-derived)
Protocol: To determine the NOD2 agonistic potential of the synthesized desmuramylpeptides at the cellular level, we used the validated and commercially available HEK-Blue NOD2 cell line reporter assay. HEK-Blue NOD2 cells were first treated for 18 h with MDP, 1, or the novel desmuramylpeptides at 2 μM. The NF-κB transcriptional activity measured was normalized to that of the vehicle treated (0.1% DMSO) control HEK-Blue NOD2 cells.
HEK-Blue NOD2 and NOD1 cell line reporter assays are derived from HEK293 cells by cotransfection of the hNOD2 or hNOD1 genes, respectively, and an NF-κB-inducible secreted embryonic alkaline phosphatase (SEAP) reporter gene. Following activation of NOD2 or NOD1, the resulting NF-κB induces production of SEAP, the levels of which can be quantified colorimetrically. […] After 18 h of incubation (37 °C, 5% CO2), secreted embryonic alkaline phosphatase (SEAP) activity was determined spectrophotometrically as absorbance at 630 nm (BioTek Synergy microplate reader; Winooski, VT, U.S.A.). EC50 values were calculated using Prism software (version 9; GraphPad Software, CA, U.S.A.). For determination of specificity, HEK-Blue NOD2 cells (2.5 × 10^5 cells/mL) were first pretreated for 1 h with a 10 μM NOD2 antagonist, before the addition of the compounds (2 μM), with incubation for 18 h. SEAP activity in the supernatants was determined as above. The experiments were run in duplicate and repeated as at least two independent biological replicates.

human PBMCs = experiment: Cytokine release from peripheral blood mononuclear cells (cytometric bead array); assay type: cell-based; details: 2 μM, 18 h, without LPS
Protocol: The immunostimulatory effects of the selected desmuramylpeptides were evaluated using human primary peripheral blood mononuclear cells (PBMCs). This heterogeneous mixture of immune cells allowed the study of the effects of these NOD2 agonists in a physiologically relevant system, where other NOD2-interacting and downstream signaling proteins were present. The effects of desmuramylpeptides were first determined for the secreted cytokine profile using a cytometric bead array cytokine kit. Moreover, considering that activation of NOD2 is also an important amplification signal for Toll-like receptor (TLR)-induced inflammatory responses,[79]−[81] we also examined the effects on cytokine secretion of the combination of desmuramylpeptides with LPS, a well-known TLR4 agonist.
In line with previous studies, the effects of MDP and the desmuramylpeptides were most pronounced for the induction of the chemokine IL-8.[82]
Peripheral blood mononuclear cells were seeded (1 × 10^6 cells/mL) in 48-well plates in 500 μL of growth medium and treated with the compounds (2 μM) or with the corresponding vehicle (0.1% DMSO) in the absence and presence of LPS (10 ng/mL). Cell-free supernatants were collected after 18 h of incubation (37 °C, 5% CO2) and stored at −80 °C until tested. Cytokine production was determined with the BD Cytometric Bead Array Human Inflammatory Cytokines Kit (contents: IL-8, IL-1β, IL-6, IL-10, TNF, IL-12p70; BD Bioscience) on an Attune NxT flow cytometer (Thermo Fisher Scientific, Waltham, MA, U.S.A.). Standard curves were generated using recombinant cytokines contained in the kit. The data were analyzed using the FlowJo (Tree Star, Inc., Ashland, OR, U.S.A.) and Prism (GraphPad, San Diego, CA, U.S.A.) software. The experiments were repeated as four independent biological replicates. Statistical significance was determined by repeated measures one-way ANOVA followed with Dunnett’s multiple comparisons test.

NIH/OlaHsd mice [3] = experiment: In vivo ovalbumin-specific antibody response, second experiment (neutral, anionic, mannosylated liposomes); design: species or system mouse; details: for Ovalbumin-specific IgG response (in words): 0.15 μmol adjuvant per dose; for Log10 (anti-OVA IgG1/anti-OVA IgG2a): second in vivo experiment, 0.15 μmol adjuvant, one week after second booster, mean ± SEM of 5 mice
Protocol: To determine whether the adjuvanticity of 75 can be modulated through changes to the liposomal formulation, a second in vivo experiment was designed in which the adjuvant activities of three different liposomal compositions were compared. Neutral liposomes were prepared from egg phosphatidylcholine and cholesterol.
as §1, §2
as §3, with “U.S.A.). For the determination of ovalbumin-specific IgG1 and IgG2a, the plates were incubated with biotin-conjugated rat anti-mouse IgG1 or IgG2a (2 h at 37 °C) and subsequently with streptavidin–peroxidase for another 2 h at 37 °C. After washing, the substrate solution was added and incubated for 30 min at room temperature in the dark, as described above.” for “U.S.A.).”

T1 sequence (Q9HC29 whole entry): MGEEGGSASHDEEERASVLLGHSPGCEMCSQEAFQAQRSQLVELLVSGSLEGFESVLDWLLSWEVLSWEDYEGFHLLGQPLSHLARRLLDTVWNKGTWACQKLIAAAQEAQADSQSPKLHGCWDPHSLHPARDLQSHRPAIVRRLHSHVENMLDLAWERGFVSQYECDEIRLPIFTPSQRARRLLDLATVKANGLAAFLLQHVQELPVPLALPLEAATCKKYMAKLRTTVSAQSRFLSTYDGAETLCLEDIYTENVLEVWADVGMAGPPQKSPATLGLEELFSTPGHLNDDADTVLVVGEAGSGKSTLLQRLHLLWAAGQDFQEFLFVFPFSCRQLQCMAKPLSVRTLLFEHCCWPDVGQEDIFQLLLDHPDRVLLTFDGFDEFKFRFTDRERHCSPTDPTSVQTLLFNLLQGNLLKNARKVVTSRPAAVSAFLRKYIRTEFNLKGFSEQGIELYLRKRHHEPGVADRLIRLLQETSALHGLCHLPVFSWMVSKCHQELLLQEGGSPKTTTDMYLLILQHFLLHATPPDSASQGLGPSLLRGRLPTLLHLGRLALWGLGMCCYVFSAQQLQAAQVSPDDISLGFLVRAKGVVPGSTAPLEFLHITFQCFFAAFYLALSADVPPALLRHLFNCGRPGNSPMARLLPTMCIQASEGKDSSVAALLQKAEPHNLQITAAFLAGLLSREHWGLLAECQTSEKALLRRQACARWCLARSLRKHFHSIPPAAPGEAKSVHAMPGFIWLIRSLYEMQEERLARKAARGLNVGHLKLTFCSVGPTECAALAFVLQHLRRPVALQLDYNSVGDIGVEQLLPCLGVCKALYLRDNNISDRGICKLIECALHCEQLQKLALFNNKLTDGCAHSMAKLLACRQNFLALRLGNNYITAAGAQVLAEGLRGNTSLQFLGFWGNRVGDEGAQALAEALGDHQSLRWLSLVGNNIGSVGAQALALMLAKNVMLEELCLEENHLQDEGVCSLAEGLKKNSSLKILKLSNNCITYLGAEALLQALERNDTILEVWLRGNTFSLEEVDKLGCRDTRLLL

Row | SMILES | Pyrogenicity [1] | Log10 (anti-OVA IgG1/anti-OVA IgG2a) (NIH/OlaHsd mice [2]) | Ovalbumin-specific IgG1 response (in words) (NIH/OlaHsd mice [2]) | Adjuvant activity: ovalbumin-specific IgG (in words) (NIH/OlaHsd mice [2]) | NOD2 activity at 2 μM (fold increase) (NOD2) | EC50 (NOD2) [nM] | Induction of cytokines IL-1β, IL-6, IL-8 and TNF-α, compound alone (human PBMCs) | Ovalbumin-specific IgG2a response (in words) (NIH/OlaHsd mice [2]) | Ovalbumin-specific IgG2a response (in words) (NIH/OlaHsd mice [3]; all liposomal compositions, compared to liposomes without adjuvant) | Ovalbumin-specific IgG response (in words) (NIH/OlaHsd mice [3]; mannosylated liposomes) | Ovalbumin-specific IgG response (in words) (NIH/OlaHsd mice [3]; negatively charged liposomes) | Ovalbumin-specific IgG response (in words) (NIH/OlaHsd mice [3]; neutral liposomes) | Log10 (anti-OVA IgG1/anti-OVA IgG2a) (NIH/OlaHsd mice [3]; anionic liposomes) | Log10 (anti-OVA IgG1/anti-OVA IgG2a) (NIH/OlaHsd mice [3]; mannosylated liposomes) | Log10 (anti-OVA IgG1/anti-OVA IgG2a) (NIH/OlaHsd mice [3]; neutral liposomes)
1 | CCOC(=O)CC[C@@H](NC(=O)[C@@H](NC(=O)CNC(=O)/C=C/c1ccc(O)c(OC)c1)C(C)C)C(=O)OCC [Compound 1] | devoid of pyrogenicity | 1.68 ± 0.06 | largely IgG1-based response | only marginal adjuvant activity | – | – | – | – | – | – | – | – | – | – | –
2 | CCCCCCCCCCCC(=O)Oc1ccc(/C=C/C(=O)NCC(=O)N[C@H](C(=O)N[C@H](CCC(=O)OCC)C(=O)OCC)C(C)C)cc1OC [Compound 74, Diethyl ((E)-3-(4-(Dodecanoyloxy)-3-methoxyphenyl)acryloyl)glycyl-L-valyl-D-glutamate] | – | 2.90 ± 0.39 | – | – | 3.17 ± 0.03 fold increase | 30 ± 5 | induced small increases in the levels of all four of these cytokines | slight suppression of the IgG2a response | – | – | – | – | – | – | –
3 | CCOC(=O)CC[C@@H](NC(=O)[C@@H](NC(=O)CNC(=O)/C=C/c1ccc(OC(C)=O)c(OC)c1)C(C)C)C(=O)OCC [Compound 73, Diethyl ((E)-3-(4-Acetoxy-3-methoxyphenyl)acryloyl)glycyl-L-valyl-D-glutamate] | – | – | – | – | 3.05 ± 0.03 fold increase | 62 ± 27 | induced small increases in the levels of all four of these cytokines | – | – | – | – | – | – | – | –
4 | CC(=O)N[C@H]1C(O)O[C@H](CO)[C@@H](O)[C@@H]1O[C@H](C)C(=O)N[C@@H](C)C(=O)N[C@H](CCC(=O)O)C(N)=O (stereo partly shown) [MDP, muramyl dipeptide, reference compound] | – | 2.43 ± 0.25 | significant increases in IgG1 generation | moderately enhanced | 2.83 fold increase and 2.83 ± 0.16 fold increase | 148 ± 26 | – | only marginal increases in IgG2a | remained unchanged | strongest immunogenicity | stronger IgG response | weakest adjuvant activities | 2.85 ± 0.10 | 2.48 ± 0.19 | 3.02 ± 0.17
